A short description of this experiment: NO-releasing ability under the oxidation by horseradish peroxidase (HRP) in the presence of H2O2 for 20min, expressed as nitrite concentration. It is filed as functional.
Turning to `COc1ccc(NC(=N)NO)cc1`, the Concentration is 24 µM. Take `COc1ccc(C/N=C(/N)NO)cc1`: the Concentration came to 49 µM. As to `N/C(=N/Cc1ccc(Cl)cc1)NO`, the Concentration worked out at 151 µM. As to `N=C(NO)NCc1ccccc1`, the Concentration came out at 33 µM.

For the compound `Cc1ccc(NC(=N)NO)cc1`, the Concentration is 6 µM. Then `Cc1ccc(C/N=C(/N)NO)cc1`, with 113 µM; and `N/C(=N/c1ccc(Br)cc1)NO`, with 54 µM; and `N=C(NO)Nc1ccc(Cl)cc1`, with 63 µM. For the compound `N=C(N)NCCC[C@H](N)C(=O)O`, the Concentration was determined as 0 µM. `N/C(=N/CCCC(N)C(=O)O)NO` (configuration not stated): the Concentration turned out to be 12 µM.

Take `N=C(NO)Nc1ccccc1`: the Concentration was found to be 28 µM. On to `N/C(=N/Cc1ccc([N+](=O)[O-])cc1)NO`, for which the Concentration turned out to be 65 µM.

(Values after ChEMBL document CHEMBL1135451, “Electrochemical and peroxidase oxidation study of N'-hydroxyguanidine derivatives as NO donors” (Bioorg Med Chem Lett, 2002).)
